pIC50: −log10 of the molar value.
Legend:
Type in all cases: cell-based
[1] = target: T1, 3-oxo-5-alpha-steroid 4-dehydrogenase 2 (Homo sapiens, UniProt P31213); assay: Inhibitory concentration against human steroid 5-alpha-reductase 2 receptor expressed in CHO 1829 cells
T1 sequence (P31213 whole entry): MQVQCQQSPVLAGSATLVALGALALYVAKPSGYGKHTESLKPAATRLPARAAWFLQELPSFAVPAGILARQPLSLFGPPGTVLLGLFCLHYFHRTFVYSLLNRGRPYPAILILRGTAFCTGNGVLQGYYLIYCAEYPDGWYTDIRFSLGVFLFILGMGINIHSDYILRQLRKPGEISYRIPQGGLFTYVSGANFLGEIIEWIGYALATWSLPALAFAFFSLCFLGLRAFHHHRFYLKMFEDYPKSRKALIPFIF

[2] = target: T1, 3-oxo-5-alpha-steroid 4-dehydrogenase 2; assay: Inhibitory concentration against human steroid 5-alpha-reductase 2 receptor expressed in CHO 1829 cells; la= low activity
[3] = target: T2, 3-oxo-5-alpha-steroid 4-dehydrogenase 1 (Homo sapiens, UniProt P18405); assay: Inhibitory concentration against human steroid 5-alpha-reductase I receptor expressed in CHO 1827 cells
T2 sequence (P18405 whole entry): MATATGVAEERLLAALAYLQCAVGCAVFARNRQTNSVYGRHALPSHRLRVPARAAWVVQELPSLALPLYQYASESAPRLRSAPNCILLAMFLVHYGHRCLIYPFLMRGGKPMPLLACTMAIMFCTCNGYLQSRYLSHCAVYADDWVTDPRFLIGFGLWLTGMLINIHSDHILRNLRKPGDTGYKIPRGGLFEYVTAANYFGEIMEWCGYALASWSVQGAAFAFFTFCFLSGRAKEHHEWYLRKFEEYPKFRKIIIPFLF

[4] = target: T2, 3-oxo-5-alpha-steroid 4-dehydrogenase 1; assay: Inhibitory concentration against human steroid 5-alpha-reductase I receptor expressed in CHO 1827 cells; la= low activity

Structure (SMILES)	pIC50 [1]	IC50 [2]	pIC50 [3]	IC50 [4]
COC(=O)c1cccc(OC(=O)c2ccc3c(c2)CCC2=C(C)C(=O)CCN23)c1	6.33			
CC1=C2CCc3cc(C(=O)Oc4ccccc4)ccc3N2CCC1=O	6.53			
CCOC(=O)c1ccc2c(c1)CCC1=C(C)C(=O)CCN12	5.32			
COC(=O)c1ccc2c(c1)CCC1=C(C)C(=O)CCN12	5.68			
CC1=C2CCc3cc(C(=O)OCc4ccccc4)ccc3N2CCC1=O	5.02			
CC1=C2CCc3cc(C(=O)Oc4ccc(C(C)(C)C)cc4)ccc3N2CCC1=O		Low activity		
CC1=C2CCc3cc(C(=O)OC(C)C)ccc3N2CCC1=O	> 7.30			
CC1=C2CCc3cc(C(=O)Oc4ccc(C)cc4)ccc3N2CCC1=O	6.26		6.99	
COC(=O)c1ccc(OC(=O)c2ccc3c(c2)CCC2=C(C)C(=O)CCN23)cc1	6.23		6.89	
CC1=C2CCc3cc(C(=O)NC(C)(C)C)ccc3N2CCC1=O		Low activity		Low activity
CC1=C2CCc3cc(C(=O)Oc4ccc(F)cc4)ccc3N2CCC1=O	6.92		7.03	
CC1=C2CCc3cc(C(=O)Oc4ccc(Cl)cc4)ccc3N2CCC1=O		Low activity	5.85	
CCN(CC)C(=O)c1ccc(OC(=O)c2ccc3c(c2)CCC2=C(C)C(=O)CCN23)cc1	6.43		6.33	
CCOc1ccc(OC(=O)c2ccc3c(c2)CCC2=C(C)C(=O)CCN23)cc1	5.48		6.68	
CC(=O)Nc1ccc(OC(=O)c2ccc3c(c2)CCC2=C(C)C(=O)CCN23)cc1	6.59		6.15	
COc1ccc(OC(=O)c2ccc3c(c2)CCC2=C(C)C(=O)CCN23)cc1	5.92		6.94	
CCCNC(=O)c1ccc(OC(=O)c2ccc3c(c2)CCC2=C(C)C(=O)CCN23)cc1	6.18		6.57	
CC1=C2CCc3cc(C(=O)OCCCO)ccc3N2CCC1=O		Low activity	5.16	
CC1=C2CCc3cc(C(=O)Oc4ccccc4C(F)(F)F)ccc3N2CCC1=O	6.43		7.38	
CC1=C2CCc3cc(C(=O)Oc4cccc(F)c4)ccc3N2CCC1=O	6.87		6.80	
CC1=C2CCc3cc(C(=O)Oc4ccc(C(=O)NC(C)(C)C)cc4)ccc3N2CCC1=O		Low activity	6.65	
CC1=C2CCc3cc(C(=O)Oc4ccc(C(F)(F)F)cc4)ccc3N2CCC1=O	5.92		6.83	
CC1=C2CCc3cc(C(=O)Oc4ccc(N)cc4)ccc3N2CCC1=O	6.10		6.57	
CC1=C2CCc3cc(C(=O)Nc4ccc(C)cc4)ccc3N2CCC1=O		Low activity	6.00	
CCN(CC)C(=O)c1ccc2c(c1)CCC1=C(C)C(=O)CCN12		Low activity		Low activity
CC1=C2CCc3cc(C(=O)Oc4cccc(C(F)(F)F)c4)ccc3N2CCC1=O	6.00		6.57	
CC1=C2CCc3cc(C(=O)OC(C)(C)C)ccc3N2CCC1=O		Low activity		
CC1=C2CCc3cc(C(=O)N(C(C)C)C(C)C)ccc3N2CCC1=O		Low activity		Low activity
CC1=C2CCc3cc(C(=O)Oc4ccc(C(N)=O)cc4)ccc3N2CCC1=O	6.51		6.44	
CC1=C2CCc3cc(C(=O)Oc4ccccc4F)ccc3N2CCC1=O	6.78		6.86	

From ChEMBL document CHEMBL1145142, “Synthesis and activity of 8-substituted benzo[c]quinolizin-3-ones as dual inhibitors of human 5alpha-reductases 1 and 2” (Bioorg Med Chem Lett, 2005)
